Tested on: PANC-1 cells
Assay: Quantification of F-2,6-P2 in PANC-1 cells
Assay type: cell-based
Conditions: Homo sapiens, PANC-1; read-out: IC50 based on quantification of F-2,6-P2
Method in brief: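 Endogenous PFKFB3/PFKFB4 activity in PANC-1 cells, 18 h serum/glucose starvation in glucose-free DMEM/F12 with 0.25% FBS, then 1 h compound preincubation (50 and 10 μM, or dose response from 50 μM; 0.5% DMSO) at 37 °C. Glucose stimulation for 2 h, NaOH lysis, F-2,6-P2 quantified by Van Schaftingen coupled enzymatic assay against in-house standard.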

SMILES | IC50 [µM]
Cc1c(S(=O)(=O)Nc2cccc(C(=O)O)c2)sc2ccc(C(C)C)cc12 [Example 5, 3-{[(5-Isopropyl-3-methyl-1-benzothien-2-yl)sulfonyl]amino}benzoic acid] | 2.3
Cc1c(S(=O)(=O)Nc2cccc(C(=O)O)c2)sc2ccc(Cl)cc12 [Example 38, 3-{[(5-Chloro-3-methyl-1-benzothien-2-yl)sulfonyl]amino}benzoic acid] | 10.1

Source: US9233946B2, “Sulfonamide compounds” (KANCERA AB, priority 2010, dated 2016)
